{"source": "patent US10752901B2", "about": "“Inhibition of ferrochelatase as an antiangiogenic therapy” (Indiana University Research and Technology Corporation, priority 2015, dated 2020)", "key": {"ferrochelatase": {"target": "T1, ferrochelatase (Sus scrofa, UniProt F1S1X4)", "T1 construct": "from tissue; host or cells: porcine brain lysate (S2 and S3 supernatants)", "T1 sequence (F1S1X4 1-433)": "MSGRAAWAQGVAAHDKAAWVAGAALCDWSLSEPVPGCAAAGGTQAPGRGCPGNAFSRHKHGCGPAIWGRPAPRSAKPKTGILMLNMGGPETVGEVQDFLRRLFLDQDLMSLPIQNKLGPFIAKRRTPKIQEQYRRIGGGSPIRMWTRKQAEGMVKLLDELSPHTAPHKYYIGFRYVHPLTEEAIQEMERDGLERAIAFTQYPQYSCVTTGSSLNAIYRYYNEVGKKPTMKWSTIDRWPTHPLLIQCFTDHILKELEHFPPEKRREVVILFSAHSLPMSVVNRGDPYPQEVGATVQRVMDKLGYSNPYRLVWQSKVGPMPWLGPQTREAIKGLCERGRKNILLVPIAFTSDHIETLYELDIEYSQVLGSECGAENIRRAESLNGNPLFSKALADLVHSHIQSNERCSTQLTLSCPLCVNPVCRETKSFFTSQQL", "assay": "Photoaffinity pull down from porcine brain lysate", "type": "binding", "settings": "competition with excess (1 mM) cremastranone isomer; immunoblot band intensity", "method": "Synthesis and characterization of affinity reagents 2 and 3 are shown in WO2014182695A1, filed May 6, 2014, and incorporated by reference to the extent it is consistent herewith. Compounds 1 and 4 were synthesized as described in Lee et al., Org Biomol Chem 28, p. 28 (2014); Basavarajappa et al., PLoS One 9, e95694 (2014). For pulldowns, Neutravidin agarose beads (1 mL of 50% slurry) were washed three times in buffer A containing 25 mM Tris-HCl pH 7.4, 150 mM NaCl, 2.5 mM sodium pyrophosphate, 1 mM phenylmethylsulfonyl fluoride (PMSF), 0.1 mM sodium orthovanadate, 10 μg/mL aprotinin and 10 μg/mL leupeptin. The beads were then incubated with 100 μM affinity or control reagents 2 or 3 overnight at 4° C. with rotation. […]\nThe beads were collected by centrifugation at 500×g for 5 minutes, then resuspended in 1 mL of buffer B and irradiated with 365 nm UV light (Mercury bulb H44GS100 from Sylvania in a Black-Ray 100 A long-wave UV lamp) in a 60 mm Petri dish for 30 minutes at 4° C. […] The eluates were then analyzed in 4-20% gradient SDS-PAGE and the protein bands were visualized using silver staining. The protein bands pulled down specifically by photo-affinity reagent were excised from the silver stained SDS-PAGE gel and analyzed by mass spectrometry (IUSM Proteomics Core). […]"}, "FECH": {"target": "T2, FECH (Homo sapiens, UniProt P22830)", "T2 construct": "host or cells: HRECs (human retinal endothelial cells)", "T2 sequence (P22830 55-423)": "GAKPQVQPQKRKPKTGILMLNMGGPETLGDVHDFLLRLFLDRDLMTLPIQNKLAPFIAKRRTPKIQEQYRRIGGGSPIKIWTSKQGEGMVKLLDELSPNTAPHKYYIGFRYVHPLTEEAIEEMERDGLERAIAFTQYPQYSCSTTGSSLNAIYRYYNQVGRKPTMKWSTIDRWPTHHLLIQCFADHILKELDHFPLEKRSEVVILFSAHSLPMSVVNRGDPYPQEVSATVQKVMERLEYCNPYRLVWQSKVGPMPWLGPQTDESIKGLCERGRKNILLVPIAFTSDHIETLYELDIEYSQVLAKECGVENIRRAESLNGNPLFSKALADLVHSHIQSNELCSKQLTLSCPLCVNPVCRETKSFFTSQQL", "assay": "PPIX build-up assay", "type": "cell-based", "settings": "HRECs, 5-ALA induced", "method": "HRECs were grown in a 6-well plate until confluent. Then, cells were serum starved overnight in EBM-2 medium. Fresh EGM-2 medium containing DMSO or compounds was added to cells, and they were incubated at 37° C. for 1 hour followed by addition of 1 mM 5-ALA to increase flux through the heme biosynthetic pathway. After 3 hours of incubation in the dark at 37° C., the cells were trypsinized and lysed in buffer containing 25 mM HEPES-NaOH pH 7.4, 150 mM NaCl, 1% NP-40, 10% glycerol and 1 mM PMSF. The cell lysates were incubated in the dark at 4° C. for 20 minutes on a shaker and centrifuged at 12000×g for 15 minutes. Supernatants were collected for analysis. In a 384-well black plate, 20 μL of supernatant was mixed with 20 μL of 1:1 solution of 2 M perchloric acid and methanol. After 5 minutes of incubation, fluorescence readings were taken at excitation and emission wavelengths of 407 nm and 610 nm using the Synergy plate reader."}, "HRECs [1]": {"system": "HRECs", "assay": "Cell proliferation assay (alamarBlue), HRECs", "type": "cell-based, human", "method": "Proliferation of cells was monitored as described in Basavarajappa et al., PLoS One 9 (2014). Briefly, after FECH knockdown 2,500 cells in 100 μL of growth medium were plated in each well of 96-well clear-bottom black plates and incubated for 24 hours. Then, compound/DMSO vehicle (final DMSO concentration of 1%) were added and the plates were incubated for 44 hours in 100 μL media at 37° C. and 5% CO2. Then, 11.1 μL of alamarBlue reagent was added to each well of the plate and 4 hours later fluorescence readings were taken at excitation and emission wavelengths of 560 nm and 590 nm respectively using a Synergy H1 plate reader (BioTek, Winooski, Vt., USA). The concentration ranges of griseofulvin and NMPP used were 0.5 nM-500 μM and 0.1 nM-100 μM respectively."}, "endothelial cells": {"system": "endothelial cells", "assay": "Anti-proliferative activity of cremastranone", "type": "cell-based, human", "settings": "endothelial versus non-endothelial cells"}, "HRECs [2]": {"system": "HRECs", "assay": "Scratch-wound migration assay", "type": "cell-based, human", "method": "The migration of HRECs was monitored as described in Basavarajappa et al., PLoS One 9, e95694 (2014). Briefly, HRECs were grown until confluency in 6-well plates and then serum starved overnight in EBM-2 medium. Then, using a sterile 10 μL tip, a scratch was introduced in each well and fresh EGM-2 medium containing DMSO or different concentrations of compounds was added to the wells. For knockdown experiments, the scratch was introduced 48 hours after transfection and fresh medium was added to the wells. Photographs of the wells were taken at different time points to measure the number of migrated cells into the scratched area."}, "HRECs [3]": {"system": "HRECs", "assay": "In vitro Matrigel tube formation assay", "type": "cell-based, human", "method": "The ability of HRECs to form tubes in vitro was monitored as described in Basavarajappa et al., J Med Chem 58, pp. 5015-5027 (2015). Briefly, HRECs were treated with the indicated concentrations of compounds or DMSO or siRNAs for 48 hours and then 15,000 HRECs in 100 μL of EGM-2 medium containing siRNAs, DMSO or compounds were added to each well of a 96-well plate that was pre-coated with 50 μL of Matrigel basement membrane. Photographs of each well at different time points were taken to measure the tube formation using the Angiogenesis Analyzer plugin in ImageJ software (v.1.48)."}, "mouse choroid-sclera": {"system": "mouse choroid-sclera", "assay": "Choroidal sprouting assay", "type": "cell-based", "settings": "ex vivo, 48 hours with compound", "method": "To assess choroidal sprouting, pieces of choroid-sclera dissected from euthanized mouse eyes were embedded in Matrigel and grown in EGM-2 medium plus antibiotics for 72 hours to allow sprouting to initiate. The indicated concentrations of griseofulvin (in DMSO, final DMSO concentration 1%) were added and growth allowed to proceed for 48 hours. Images were taken and growth quantified by measuring distance from the edge of the choroidal piece to the growth front in 4 directions per sample."}, "[4]": {"system": "choroidal neovascularization", "assay": "L-CNV model (laser-induced choroidal neovascularization)", "type": "in vivo, mouse", "settings": "L-CNV mice"}, "[5]": {"assay": "Oral griseofulvin systemic effects (mouse and liver weights)", "type": "in vivo", "settings": "oral feeding", "method": "Mice were fed griseofulvin for a total of 3 weeks, with chow changed every 2-3 days. Standard mouse chow (5 g/mouse/day) was mixed in water (2.2 mL H2O/gram chow), soaked for 15 minutes, then mashed. Griseofulvin doses were prepared at 0.0% (control), 0.5%, and 1.0% with 0.0 g, 0.5 g, and 1.0 g griseofulvin: 10 mL corn oil: 100 g mouse chow ratio, respectively. […] The corn oil solutions and mouse chow mixture were manually mixed thoroughly for 10 minutes. During treatment, the mice were examined and weighed 3 times/week (FIG. 1A). On Day 8, mice underwent L-CNV as above, and were imaged by OCT at Day 15 and Day 22, at which time they were euthanized. The eyes were enucleated and flatmounts prepared as above. The livers were dissected out and weighed (FIG. 1B)."}, "[6]": {"settings": "antifungal treatment of humans; cited from earlier work"}}, "data": [{"molecule": "COc1ccc(CC2COc3cc(OC)c(O)c(O)c3C2=O)cc1O", "note": "(single isomer, unassigned) [cremastranone isomer]", "values": [{"measurement": "decrease of binding of ferrochelatase to affinity reagent", "setting": "ferrochelatase", "result": 87, "unit": "%"}]}, {"molecule": "COc1ccc(CC2COc3cc(O)c(OC)c(O)c3C2=O)cc1O", "note": "(centres unmarked) [cremastranone]", "values": [{"measurement": "buildup of PPIX", "setting": "FECH", "result": "dose-dependent buildup of PPIX"}, {"measurement": "rescue of antiproliferative effects by excess 5-ALA", "setting": "HRECs [1]; HRECs, addition of 5-aminolevulinic acid", "result": "partially rescued"}, {"measurement": "antiproliferative effects", "setting": "endothelial cells", "result": "selective antiproliferative effects on endothelial cells"}]}, {"molecule": "COC1=CC(=O)C[C@@H](C)[C@]12Oc1c(Cl)c(OC)cc(OC)c1C2=O", "note": "[griseofulvin]", "values": [{"measurement": "proliferation of HRECs", "setting": "HRECs [1]", "result": "dose-dependent antiproliferative effects"}, {"measurement": "concentration of griseofulvin needed to have effects", "setting": "HRECs [1]; HRECs in vitro (proliferation, migration, tube formation)", "result": "~10", "unit": "µM"}, {"measurement": "migration of HRECs", "setting": "HRECs [2]", "result": "inhibition of migration"}, {"measurement": "tube formation ability of HRECs", "setting": "HRECs [3]", "result": "inhibition of tube formation"}, {"measurement": "formation of microvascular sprouts", "setting": "mouse choroid-sclera", "result": "inhibited formation of microvascular sprouts"}, {"measurement": "neovascularization", "setting": "[4]; feeding 0.5% and 1% in chow", "result": "decreased neovascularization"}, {"measurement": "neovascularization", "setting": "[4]; single intravitreal injection 50 μM, 100 μM", "result": "dose-dependent results"}, {"measurement": "liver weights", "setting": "[5]", "result": "increased"}, {"measurement": "mouse weights", "setting": "[5]; experimental timecourse", "result": "did not significantly change"}, {"measurement": "concentration attained in plasma", "setting": "[6]", "result": "1000 to 2000", "unit": "ng/mL"}]}, {"molecule": "N-methyl protoporphyrin [NMPP]", "values": [{"measurement": "proliferation of HRECs", "setting": "HRECs [1]", "result": "inhibited"}, {"measurement": "migration of HRECs", "setting": "HRECs [2]", "result": "inhibited"}, {"measurement": "tube formation ability of HRECs", "setting": "HRECs [3]", "result": "inhibited"}]}]}
